Structures can show the parent of a compound that is named as a salt. Where two headings read alike, the source gives them in different places.
Assays:
[1] = tested on: NO production in LPS-activated murine macrophage RAW 264.7 cells; test: Assay for NO inhibitory effect using LPS-activated RAW 264.7 cells (Griess reagent); assay type: cell-based; details: for IC50: LPS (1 μg/mL, 20 h)-activated RAW 264.7 cells
Experimental: (§1) The inhibitory effects of samples on NO production were evaluated in LPS-activated murine macrophage RAW 264.7 cells, using a method modified from that previously reported. Briefly, RAW 264.7 cells were cultured in Dulbecco’s modified Eagle’s medium (DMEM) supplemented with penicillin G sodium (100 units/mL), streptomycin sulfate (100 μg/mL), amphotericin B (0.25 μg/mL), and 10% fetal bovine serum (FBS). The cells were seeded in 96-well culture plates with 1 × 10^5 cells/well and incubated for 24 h at 37°C in a humidified atmosphere containing 5% CO2. The cells were treated with samples dissolved in phenol red-free DMEM for 30 min followed by 1 μg/mL of LPS treatment for 20 h. The amount of NO in the cultured medium was measured by the Griess reagent. The standard curve was created by using known concentrations of sodium nitrite, and the absorbance was measured at 540 nm. To evaluate the cytotoxic effect of samples in RAW 264.7 cells in the assay condition, SRB assay was performed. Briefly, after the fixation with 10% trichloroacetic acid (TCA), cells were stained with 0.4% SRB solution in 1% acetic acid followed by dissolving bound SRB in 10 mM Tris-buffer. The optical density was determined at 515 nm.

[2] = SRB assay for cytotoxic effect in RAW 264.7 cells under the NO assay condition; assay type: cell-based, murine; details: mouse, RAW 264.7 macrophage cells (LPS-activated); for activity at 20 h, 20 μg/mL: 20 μg/mL after 20 h incubation in RAW 264.7 cells, read-out: Cytotoxic activity % Survival; for IC50 at 20 h: RAW 264.7 cells, SRB
Experimental: (§2) In addition, to determine whether the inhibitory effects of compounds on NO production were due to specific pharmacological activities, or non-specific cell cytotoxicity leading to false positive results, RAW 264.7 cell viability was determined by using the sulforhodamine B (SRB) protein staining method. Compounds 1 and 6 mediated a modest cytototoxic response, with 36.1 and 43.0% percent survival, respectively, at the highest concentration tested (20 μg/mL; 51.0 μM). Cytotoxic effects diminished with lower concentrations. […] Further experiments will be performed to determine whether epimuqubilin A inhibits nitrite production via suppression of iNOS expression in the levels of protein.
as §1

[3] = tested on: RAW 264.7 cells; test: as above; assay type: cell-based, murine; details: for Cytotoxic effects: at 12.8 μM, RAW 264.7 cells, SRB
Experimental: as §2, §1

[4] = tested on: GSK-3β; assay type: cell-based, yeast; details: disk alone 7 mm
Experimental: Disruption of four yeast GSK-3 homologs (MCK1, MDS1, MRK1 and YOL128C) in gsk-3 null mutant confers a temperature-sensitive phenotype (growth defect at 37 °C), that can be suppressed by the expression of cloned mammalian GSK-3β [29]. Inhibition of GSK-3β should therefore mimic the phenotype of the gsk-3 null mutant, indicated by growth inhibition of transformant of gsk-3 null with pKT10-GSK-3β only at 37 °C. A genetically modified yeast strain, H10075 with genotype {MAT α his3 leu2 ura3 trp1 ade2 mck1::TRP1 mds1::HIS3 mrk1 yol128c::LEU2 [pKT10-GSK-3β], was grown in 5 mL of liquid media of SC minus uracil, shaking, at 37 °C for 2 days. Four hundred-μL of the yeast culture was added to 100 mL of SC minus uracil agar [0.67% yeast nitrogen base without amino acids and ammonium sulfate, 0.5% ammonium sulfate, 2% D-(+)-glucose anhydrate, 1 mL each of 0.03 mg/mL of adenine (hemisulfate salt), 0.03 mg/mL of L-tryptophan, 0.03 mg/mL of L-leucine, 0.03 mg/mL of L-histidine and 1.5% bacteriological agar, pH 5.6]. […] The Petri dishes were incubated at both 25 °C and 37 °C for 72 hours. Three phenotypes are observed on yeast plates. A clear zone of inhibition (ZOI) at 37 °C and no ZOI at 25 °C indicate that the agent tested inhibits the GSK-3β pathway. The clear zones of inhibition at both 37 and 25 °C of equal width indicate that the agents are cytotoxic. Plates that have a negative phenotype are plates that have no observable ZOI. […] The assays were performed in duplicate.

IC50 ([1]; Mus musculus, RAW264.7, 20 h) [µM] | Structure (SMILES) | activity at 20 h, 20 μg/mL [2] [%] | Yeast GSK-3β zone of inhibition ([4]; 25 °C, 20 μg/disk) | Yeast GSK-3β zone of inhibition ([4]; 37 °C, 20 μg/disk) [mm] | Yeast GSK-3β zone of inhibition ([4]; 37 °C, 40 μg/disk) | also measured
23.8 | CC(=O)CCCC(C)(C)C(=O)CCC(C)=CCCC1(C)CCC(C(C)C(=O)O)OO1 (stereo not drawn) [Compound 2, muqubilone B] | 99 | – | – | – | –
46 | COC(=O)C(C)C1CCC(C)(CCC=C(C)CCC=C(C)CCC=C(C)C)OO1 (stereo not drawn) [Compound 3] | > 100 | – | – | – | –
– | C=C1CCCC2C1(C)CCC(C)C2(C)CCC1(C)CCC(C(C)C(=O)OC)OO1 (stereo not drawn) [Compound 5, sigmosceptrellin A methyl ester] | – | – | – | – | IC50 ([1]; listed as Sigmosceptrellin A methyl ester (5)): > 100 µM; NO inhibitory activity (in words) ([1]; LPS-activated RAW 264.7 cells): inactive; Cytotoxic activity % Survival ([3]; 20 μg/mL after 20 h incubation in RAW 264.7 cells, listed as Sigmosceptrellin A methyl ester (5)): 90.6%
65.7 | C=C1CCCC2C1(C)CCC(C)C2(C)CCC1(C)CCC(C(C)C(=O)OC)OO1 (stereo not drawn) [Compound 7, sigmosceptrellin B methyl ester] | > 100 | – | – | – | –
25.5 | [H]/N=C(/NC)NCCC[C@H](N)C(=O)O [L-NMMA, L-N^G-Monomethyl Arginine citrate, reference compound] | > 100 | – | – | – | –
– | Cn1sc(=O)n(Cc2ccccc2)c1=O [TDZD-8, 4-Benzyl-2-methyl-1,2,4-thiadiazolidine-3,5-dione, reference compound] | – | 10 mm | 11 | 15 mm | Yeast GSK-3β zone of inhibition ([4]; 25 °C, 5 μg/disk): 8 mm; Yeast GSK-3β zone of inhibition ([4]; 25 °C, 10 μg/disk): 9 mm; Yeast GSK-3β zone of inhibition ([4]; 25 °C, 40 μg/disk): 12 mm; Yeast GSK-3β zone of inhibition ([4]; 37 °C, 5 μg/disk): 9 mm; Yeast GSK-3β zone of inhibition ([4]; 37 °C, 10 μg/disk): 10 mm

Structure (SMILES) | IC50 ([1]; Mus musculus, RAW264.7, 20 h) [µM] | activity at 20 h, 20 μg/mL [2] [%] | Yeast GSK-3β zone of inhibition ([4]; 25 °C, 20 μg/disk) | Yeast GSK-3β zone of inhibition ([4]; 37 °C, 20 μg/disk) [mm] | Yeast GSK-3β zone of inhibition ([4]; 37 °C, 40 μg/disk) | also measured
CC1=C(CC/C(C)=C/CC[C@@]2(C)CC[C@@H]([C@H](C)C(=O)O)OO2)C(C)(C)CCC1 [Compound 1, epimuqubilin A] | 7.4 | 36.1 | no ZOI | 8 | 10–13 mm | IC50 at 20 h [2]: 37.1 µM; Cytotoxic effects [3]: no significant cytotoxic effects; Yeast GSK-3β zone of inhibition ([4]; 37 °C, 20 μg/disk, listed as Epimuqubilin A (1)): 9 mm; Yeast GSK-3β zone of inhibition ([4]; 37 °C, 40 μg/disk, listed as Epimuqubilin A (1)): 10 mm
C=C1CCCC(C)(C)C1(O)CC/C(C)=C/CC[C@]1(C)CC[C@H]([C@@H](C)C(=O)OC)OO1 (stereo partly drawn) [Compound 4, epimuqubilin B] | 25.6 | > 100 | no ZOI | 8 | 10–13 mm | Yeast GSK-3β zone of inhibition ([4]; 37 °C, 40 μg/disk, listed as Epimuqubilin B (4)): 10 mm
C=C1CCC[C@H]2[C@](C)(CC[C@]3(C)CC[C@H]([C@@H](C)C(=O)O)OO3)[C@@H](C)CC[C@]12C [Compound 6, sigmosceptrellin A] | 9.9 | 43 | no ZOI | 8 | 10–13 mm | IC50 at 20 h [2]: 42.7 µM; Cytotoxic effects [3]: no significant cytotoxic effects; Yeast GSK-3β zone of inhibition ([4]; 37 °C, 5 μg/disk): 8 mm; Yeast GSK-3β zone of inhibition ([4]; 37 °C, 10 μg/disk): 10 mm; Yeast GSK-3β zone of inhibition ([4]; 37 °C, 20 μg/disk, listed as Sigmosceptrellin A (6)): 11 mm; Yeast GSK-3β zone of inhibition ([4]; 37 °C, 40 μg/disk, listed as Sigmosceptrellin A (6)): 13 mm
